Results on eleven molecules are retold here after patent publication EP3964497A1, “SUBSTITUTED VICINAL DIAMINE COMPOUNDS AND THEIR USE IN THE TREATMENT, AMELIORATION OR PREVENTION OF PAIN” (priority 2020, dated 2022).

Where two headings read alike, the source gives them in different places.

For experiment [1], the target named is T1, κOR (Homo sapiens, UniProt P41145).
T1 construct: expressed in transfected cells; host or cells: HEK 293T cells, transient transfection, membrane preparation
Description: competitive radioligand binding with [3H]diprenorphine, membranes of transfected HEK 293T cells. The protocol: (§1) To verify the subtype selectivity of the described compounds for µOR over δOP and κOR, respectively, the binding affinities of the described examples to the different human opioid receptors in an in-vitro test system were measured.
After preparation of membranes, radioligand displacement assays were run in 96-well format at a final volume of 200 µL in binding buffer (50 mM Tris-HCI, 1 mM EDTA, 5 mM MgCl2, 100 µg/mL bacitracin, 5 µg/mL soybean trypsin inhibitor, pH 7.4) with the radioligand [^3H]diprenorphine (specific activity = 31 Ci/mmol) at a final concentration of 0.20-0.30 nM. […] Unspecific binding was determined in the presence of 10 µM of the naloxone. […] The resulting competition curves of the receptor binding experiments were analyzed by nonlinear regression. […] Three to seven experiments per compound were performed, with each concentration in triplicate.

The target of experiment [2] is T2, µOR (Homo sapiens, UniProt P35372). The description is as above. Also on record: expressed in transfected cells; host or cells: HEK 293T cells, transient transfection, membrane preparation. As to the method:
as §1
(§2) For the determination of receptor binding affinity competitive radioligand binding experiments were performed as described in literature (H. Huebner, C. Haubmann, W. Utz, P. Gmeiner, J. Med. Chem., 2000, 43, 756-762). In brief, HEK 293T cells were transiently transfected with the cDNAs coding for the human opioid receptor subtypes µOR, δOR, and kOR, respectively, using a solution of polyethylenimine in PBS (PEI, linear, 25 kDa, Polysciences) as transfection reagent at a 3:1 PEI to cDNA ratio (I. Fish, A. Stoessel, K. Eitel, C. Valant, S. Albold, H. Huebner, D. Moeller, M.J. Clark, R.K. Sunahara, A. Christopoulos, B.K. Shoichet, P. Gmeiner, J. Med. Chem., 2017, 60, 9239-9250). After preparation of membranes, radioligand displacement assays were run in 96-well format at a final volume of 200 µL in binding buffer (50 mM Tris-HCI, 1 mM EDTA, 5 mM MgCl2, 100 µg/mL bacitracin, 5 µg/mL soybean trypsin inhibitor, pH 7.4) with the radioligand [^3H]diprenorphine (specific activity = 31 Ci/mmol) at a final concentration of 0.20-0.30 nM. […] Unspecific binding was determined in the presence of 10 µM of the naloxone. Protein concentrations were determined employing the method of Lowry with bovine serum albumin as standard (O.H. Lowry, N.J. Rosebrough, A.L. Farr, R.J. Randall, J. Biol. Chem., 1951, 193, 265-275). The resulting competition curves of the receptor binding experiments were analyzed by nonlinear regression. The data were initially fit using a sigmoid model to provide IC50 values, which were subsequently transformed to Ki values according to the equation of Cheng and Prusoff (Y.-C. Cheng, W. H. Prusoff, Biochem. Pharmacol., 1973, 22, 3099-3108). Three to seven experiments per compound were performed, with each concentration in triplicate.

For experiment [3], the target named is T2, µOR. Description: G-protein mediated signaling, IP1 accumulation assay (HTRF) in HEK-293T cells with hybrid G-protein Gαqi. Type of experiment: cell-based. Also on record: expressed in transfected cells; host or cells: HEK-293T cells, transient transfection. The settings on record: for Emax: HEK-293T, read-out: G-protein signaling Emax; for G-protein signaling EC50: mean of 3-9 experiments, 180 min at 37 °C, CBA = could not be analyzed (no dose-response curve). As to the method:
(§3) Functionally selective drugs, which are biased towards Gi protein activation over β-arrestin signaling at the µOR are indicated to show an improved side effect profile. Thus, the characterization of the functional properties of the described examples at the µOR were performed by determination of the ligand stimulated G-protein related signaling and β-arrestin recruitment applying cell based in-vitro test systems. Full and partial agonists as well as antagonists for G protein related signaling were identified.
The determination of G-protein stimulated µOR activation was measured applying an IP1 accumulation assay as described previously (J. Kruell, S.K. Fehler, L. Hofmann, N. Nebel, S. Maschauer, O. Prante, P. Gmeiner, H. Lanig, H. Huebner, M.R. Heinrich. ChemMedChem 2020, 15, 1175-1186. C. Gentzsch, K. Seier, A. Drakopoulos, M.-L. Jobin, Y. Lanoiselee, Z. Koszegi, D. Maurel, R. Sounier, H. Huebner, P. Gmeiner, S. Granier, D. Calebiro, M. Decker. Ang. Chem. Int. Ed. 2020, 59, 2-9). In brief, HEK-293T cells were grown to confluence of approximately 70% and transiently transfected with the cDNA of the human µOR receptor and the hybrid G-protein Gαqi. After one day cells were seeded into 384-well microplates. For testing cells were incubated with test compounds (final range of concentration from 1 pM up to 10 µM) for 180 min at 37 °C followed by addition of detection reagents. Time resolved fluorescence resonance energy transfer (HTRF) was determined using a microplate reader. Each compound was tested in duplicates in 3-9 individual experiments in comparison to the reference compound DAMGO. The resulting dose response curves were analyzed by nonlinear regression using the algorithms in PRISM 6.0 (GraphPad software, San Diego, CA), fitted with a sigmoid model and normalized to basal activity (0 %) and the maximal effect caused by the reference full agonist DAMGO (100 %).
(§4) In the above table, the numbers indicate mean EC50 values in nM and Emax values relative to the full effect of reference agonist DAMGO [=100%], respectively and are derived from 3-9 individual experiments for G-protein signaling and 3-8 tests for arrestin recruitment. ND = not determined.

For experiment [4], the target named is T2, µOR. Description: β-arrestin-2 recruitment, enzyme-fragment complementation assay in HEK-293 cells. Type of experiment: cell-based. Further details: expressed in transfected cells; host or cells: HEK-293 cells stably expressing EA-tagged β-arrestin-2, transiently transfected with µOR-PK1. The conditions noted are these: for Emax: HEK293, relative to the full effect of reference agonist DAMGO [=100%]; for β-arrestin recruitment EC50: mean of 3-8 tests, 90 min incubation, CBA = could not be analyzed (no dose-response curve). The protocol:
as §3
Measurement of β-arrestin-2 recruitment was done applying an enzyme-fragment complementation assay as described previously (C. Gentzsch, K. Seier, A. Drakopoulos, M.-L. Jobin, Y. Lanoiselee, Z. Koszegi, D. Maurel, R. Sounier, H. Huebner, P. Gmeiner, S. Granier, D. Calebiro, M. Decker. Ang. Chem. Int. Ed. 2020, 59, 2-9. J. Hellmann, M. Drabek, J. Yin, J. Gunera, T. Proell, F. Kraus, C.J. Langmead, H. Huebner, D. Weikert, P. Kolb, D.M. Rosenbaum, P. Gmeiner. PNAS 2020, 117, 18059-18067). In brief, HEK-293 cells stably expressing the enzyme acceptor (EA) tagged β-arrestin-2 fusion protein were transiently co-transfected with the ProLink tagged µOR-PK1 After 24 h cells were transferred into 384-well microplates and cultured for further 24 h. To start arrestin recruitment compounds were added to the cells to get a final concentration in a range of 10 pM to 100 µM. After incubation for 90 min reaction was stopped by addition of detection mix. Chemiluminescence was determined in duplicates (3-8 individual experiments for each compound in comparison to the reference agonist DAMGO). Data analysis was done as described above.
as §4
(Arrestin recruitment assays detect the binding of arrestin to an activated receptor.)

Experiment [5] deals with T3, δOR (Homo sapiens, UniProt P41143).
T3 construct: expressed in transfected cells; host or cells: HEK 293T cells, transient transfection, membrane preparation
As to the kind of experiment: competitive radioligand binding with [3H]diprenorphine, membranes of transfected HEK 293T cells. The protocol:
as §1, §2

Where [6] appears, read: radioligand [3H]diprenorphine, number in brackets = number of experiments, read-out: mean Ki value κOR.
The mark [7] stands for this setting: radioligand [3H]diprenorphine, number in brackets = number of experiments, read-out: mean Ki value δOR.

Take `CN(C)[C@H](CNC(=O)/C=C/c1ccc(C(F)(F)F)cc1)Cc1ccc(O)cc1` [Example 9, (S,E)-N-(2-(Dimethylamino)-3-(4-hydroxyphenyl)propyl)-3-(4-(trifluoromethyl)phenyl)acrylamide]: the Ki in experiment [1] (setting [6]) was 2800 nM; in experiment [2] (radioligand [3H]diprenorphine, number in brackets = number of experiments, read-out: mean Ki value µOR), 170 nM; in experiment [5] (setting [7]), 1100 nM. For the same molecule, the EC50 in experiment [3] was 67 nM. The Emax in experiment [3] is 92%; in experiment [4], below 5%. Besides, the “β-arrestin recruitment EC50” value in experiment [4] was “CBA”.
In the case of `CN(C)[C@H](COC(=O)NCCc1ccsc1)Cc1ccc(O)cc1` [Comparative Example 1, (S)-2-(Dimethylamino)-3-(4-hydroxyphenyl)propyl (2-(thiophen-3-yl)ethyl)carbamate formiate, reference compound], the Ki amounted to 3300 nM in experiment [1], 2400 nM in experiment [2] and 3000 nM in experiment [5].
For `Cc1cc(O)cc(C)c1C[C@H](N)CNC(=O)/C=C/c1ccccc1` [Example 10, (S)-N-(2-Amino-3-(4-hydroxy-2,6-dimethylphenyl)propyl)cinnamamide formiate], the results for the Ki in experiment [1], in experiment [2] and in experiment [5] were 440 nM, 58 nM and 510 nM, respectively. For the same molecule, the Emax in experiment [3] and in experiment [4] was below 5% throughout. The “G-protein signaling EC50” value in experiment [3] is “CBA”. Besides, in experiment [4], the “β-arrestin recruitment EC50” value is given as “CBA”.
Consider `CN(C)[C@H](CNC(=O)/C=C/c1ccc(F)c(C(F)(F)F)c1)Cc1ccc(O)cc1` [Example 16, (S,E)-N-(2-(Dimethylamino)-3-(4-hydroxyphenyl)propyl)-3-(4-fluoro-3-(trifluoromethyl)phenyl)acrylamide formiate], for which the Ki in experiment [1] amounted to 600 nM; in experiment [2], 23 nM; in experiment [5], 250 nM. Moreover, a half-maximal effect in experiment [3] (EC50) was put at 40 nM. In experiment [3], the Emax was found to be 102%.
Consider `Cc1cc(O)cc(C)c1C[C@H](N)CNC(=O)/C=C/c1cccc(C(F)(F)F)c1` [Example 11, (S,E)-N-(2-Amino-3-(4-hydroxy-2,6-dimethylphenyl)propyl)-3-(3-(trifluoromethyl)phenyl)acrylamide formiate], for which the Ki amounted to 220 nM in experiment [1], 19 nM in experiment [2] and 360 nM in experiment [5]. In experiment [3], the maximal response (Emax) was below 5%. In addition, the “G-protein signaling EC50” value in experiment [3] is given as “CBA”.
`CN(C)[C@H](CNC(=O)/C=C/c1cccc2ccccc12)Cc1ccc(O)cc1` [Example 6, (S,E)-N-(2-(Dimethylamino)-3-(4-hydroxyphenyl)propyl)-3-(naphthalen-1-yl)acrylamide] registered a Ki in experiment [1] of 180 nM. This molecule came in with an EC50 in experiment [3] of 20 nM. Besides, in experiment [4], the Emax was below 5% and the “β-arrestin recruitment EC50” value is recorded as “CBA”.
As for `CN(C)[C@H](CNC(=O)/N=N/c1ccccc1)Cc1ccc(O)cc1` [Comparative Example 3, (S,E)-N-(2-(Dimethylamino)-3-(4-hydroxyphenyl)propyl)-2-phenyldiazene-1-carboxamide formiate, reference compound], the Ki in experiment [1] amounted to 540 nM; in experiment [2], 66 nM; in experiment [5], 630 nM.
For the molecule `CN[C@H](CNC(=O)/C=C/c1cccc(C(F)(F)F)c1)Cc1c(C)cc(O)cc1C` [Example 12, (S,E)-N-(3-(4-Hydroxy-2,6-dimethylphenyl)-2-(methylamino)propyl)-3-(3-(trifluoromethyl)phenyl)acrylamide formiate], the figures for the Ki in experiment [1], in experiment [2] and in experiment [5] were 310 nM, 12 nM and 310 nM, respectively. In addition, the Emax in experiment [3] is below 5%. In addition, the “G-protein signaling EC50” value in experiment [3] was “CBA”.
As for `CN(C)[C@H](COC(=O)C=Cc1ccccc1)Cc1ccc(O)cc1` (stereo in doubt) [Comparative Example 2, (S)-2-(Dimethylamino)-3-(4-hydroxyphenyl)propyl cinnamate, reference compound], the Ki in experiment [1] is 320 nM; in experiment [2], 230 nM; in experiment [5], 860 nM.
The like results for `CN(C)[C@](C)(CNC(=O)C=Cc1ccccc1)Cc1ccc(O)cc1` (stereo in doubt) [Example 5, (S)-N-(2-(Dimethylamino)-3-(4-hydroxyphenyl)-2-methylpropyl)cinnamamide] were, in that order, 970 nM, 310 nM and 1300 nM.
For the molecule `Cc1cccc(/C=C/C(=O)NC[C@H](Cc2ccc(O)cc2)N(C)C)c1` [Example 13, (S,E)-N-(2-(Dimethylamino)-3-(4-hydroxyphenyl)propyl)-3-(m-tolyl)acrylamide], the Ki in experiment [1] (setting [6]) is 500 nM; in experiment [2], 26 nM; in experiment [5] (setting [7]), 300 nM. In experiment [3], this molecule returned an EC50 of 41 nM. Also, in experiment [3], the Emax came out at 78%.

Usually Ki stands for the equilibrium dissociation constant of an inhibitor or competing ligand from its target. By EC50 is commonly meant the concentration needed to bring the measured effect to its halfway point. A lower EC50 goes with an effect from little substance. In general, Emax refers to the size of the effect at its maximum, as opposed to the concentration needed.
